Entries after “also recorded” stand apart in the source; their conditions may differ. Where two headings read alike, the source gives them in different places.
Experiments:
[1] = D. C. Delong et al, 1971; cited from earlier work
[2] = literature; cited from earlier work
[3] = test system: measles virus; assay: Plaque inhibition (measles virus); type: cell-based; details: for inhibition at 20 µg/mL / inhibition at 100 µg/mL / inhibition at 500 µg/mL: Measles morbillivirus, 96 h, VERO cells, 4 days at 37°C, >=50% definite, 20 to 50 moderate, <20% little or no antiviral activity; for inhibition at 20 µg/mL: read-out: Percent Plaque Inhibition at 20 µg/mL; for inhibition at 100 µg/mL: read-out: Percent Plaque Inhibition at 100 µg/mL; for inhibition at 500 µg/mL: read-out: Percent Plaque Inhibition at 500 µg/mL
[4] = test system: Type 1 herpes simplex; assay: In vitro activity against Type 1 herpes simplex, virus rating (VR) method of Sidwell et al; type: cell-based; details: for virus rating (VR): method of Sidwell et al. Appl. Microbiol. 22, 797 (1971)

Compound: NC(=O)c1[nH]nc([C@@H]2O[C@H](CO)[C@@H](O)[C@H]2O)c1O [pyrazomycin]
- toxicity associated with employment in vivo (in words) [1]: a degree of toxicity
- antiviral activity (in words) [2]: exhibits a substantial range of antiviral activity

Compound: NC(=O)c1[nH]nnc1O [Compound 3, 4-Hydroxy-1,2,3-triazole-5-carboxamide]
- inhibition at 20 µg/mL [3]: 33%
- inhibition at 100 µg/mL [3]: 60%
- inhibition at 500 µg/mL [3]: 89%
- activity against Type 1 herpes simplex (in words) [4]: active
- virus rating (VR) [4]: 0.6

Compound: NC(=O)c1nnn([C@@H]2O[C@H](CO)[C@@H](O)[C@H]2O)c1O [Compound 1, 5-Hydroxy-1-β-D-ribofuranosyl-1,2,3-triazole-4-carboxamide]
- inhibition at 20 µg/mL [3]: 33%
- inhibition at 100 µg/mL [3]: 84%
- inhibition at 500 µg/mL [3]: 100%
- activity against measles virus (in words) ([3]; in vitro): exhibited in vitro activity
- activity against Type 1 herpes simplex (in words) [4]: exhibited in vitro activity; also recorded: active
- virus rating (VR) [4]: 0.6

Compound: O.[NH-]C(=O)c1[nH]nnc1O.[Na+] [Compound 4, 4-Hydroxy-1,2,3-triazole-5-carboxamide Sodium Salt Monohydrate]
- activity against Type 1 herpes simplex (in words) ([4]; Sodium Salt Monohydrate): active
- virus rating (VR) [4]: 0.5

Compound: NC(=O)c1ncn([C@@H]2O[C@H](CO)[C@@H](O)[C@H]2O)n1 [1-β-D-ribofuranosyl-1,2,4-triazole-3-carboxamide]
- antiviral activity (in words) [2]: substantial range of antiviral activity

Compound: NC(=O)c1nn([C@@H]2O[C@H](CO)[C@@H](O)[C@H]2O)nc1O [Compound 2, 5-Hydroxy-2-β-D-ribofuranosyl-1,2,3-triazole-4-carboxamide]
- inhibition at 20 µg/mL [3]: 0%
- inhibition at 100 µg/mL [3]: 0%
- inhibition at 500 µg/mL [3]: 5%

Reference: patent US3948885A, “5-Hydroxyl-1,2,3-triazole-4-carboxamide nucleoside” (ICN Pharmaceuticals, Inc., priority 1973, dated 1976)
